What was measured:
[1] = Dynamic PET/MR study in SPRD rat; format: in vivo
Description: For the time of the experiments, one female CD-1 mouse (10 weeks; 30.5 g) and one female SPRD rat (9 weeks; 256 g) were kept in a dedicated climatic chamber with free access to water and food under a 12:12 h dark:light cycle at a constant temperature (24 °C). The animals were anesthetized (Anaesthesia Unit U-410, agntho’s, Lidingö, Sweden) with isoflurane (2.0%, 300 mL/min) delivered in a 60% oxygen/40% air mixture (Gas Blender 100 Series, MCQ instruments, Rome, Italy) and their body temperature maintained at 37 °C with a thermal bed system for the duration of the PET studies. A dynamic PET scan (PET/MR 1T, Mediso nanoScan®, Hungary) started 20 s before intravenous injection into the tail vein of [^18F]11 and was performed in mouse for 60 min (4.9 MBq in 150 μL isotonic saline; 20.5 nmol/kg; Am: 8.9 GBq/μmol, EOS) in rat for 30 min (29.7 MBq in 400 μL isotonic saline; 12 nmol/kg; Am: 11 GBq/μmol, EOS). Each PET image was corrected for random coincidences, dead time, scatter and attenuation (AC), based on a whole body (WB) MR scan. The reconstruction parameters for the list mode data were 3D-ordered subset expectation maximization (OSEM), 4 iterations, 6 subsets, energy window: 400–600 keV, coincidence mode: 1–5, ring difference: 81. Preceding the PET scan a T1 weighted WB gradient echo sequence (TR/TE: 20/6.4 ms, NEX: 1, FA: 25, FOV: 64 × 64 mm, Matrix: 128 × 128, STh: 0.5 mm) was performed for AC and anatomical orientation. PET Images were analyzed with PMOD (PMOD Technologies LLC, v. 4.1, Zurich, Switzerland). The respective brain regions were identified using the mouse brain atlas template Ma-Benveniste-Mirrione-T2 or the rat brain atlas template Schwarz-T2. The regional activity data (radioactivity concentration, kBq/mL) were normalized to the injected dose (MBq) and corrected for the animal weight (g) to provide standardized uptake values (SUV, g/mL). Finally, the results of the PETscans are expressed as mean SUV of the respective region of interest ROI.

[2] = Chemical stability of the radiotracer in PBS and n-octanol; format: physicochemical; details: 30 °C, 60 min, radio-HPLC
Description: In order to estimate the lipophilicity of [^18F]11, the partition coefficient was determined by the shake flask method using n-octanol and phosphate-buffered saline as partition system. […] The chemical stability of the radiotracer was investigated by incubation in phosphate-buffered saline (PBS) and n-octanol at 30 °C.
The determination of stability and logD value has been performed according to the procedures described by Sadeghzadeh and Wenzel et al..

[3] = In vivo metabolism in SPRD rats (radio-HPLC of plasma and brain); details: rat, 30 min p.i., i.v.
Description: Metabolism in rats has been investigated in the animals applied in PET studies (protocol reported below). In brief, blood was taken from two anesthetized female SPRD rats 30 min after intravenous injection of [^18F]11 followed by decapitation and isolation of the brains. The blood samples and the brains were processed as described above.
Protein precipitation was performed by the addition of ice-cold ACN/H2O (9:1, v/v) in a ratio of 4:1 (v/v) of organic solvent to plasma or brain homogenate, respectively. The samples were vortexed for 3 min, equilibrated on ice for 3 min, and centrifuged for 10 min at 10,000 rpm and the supernatant collected. The precipitates were washed with 100 μL of the solvent mixture and subjected to the same procedure. The combined supernatants were concentrated at 70 °C under argon flow to a final volume of approximately 100 μL and analysed by analytical radio-HPLC with a gradient system (see radiochemistry general section). The peak corresponding to the radiotracer in the radio-chromatogram was identified by co-injecting the sample with the reference compound 11. To determine the percentage of activity in the supernatants compared to total activity, aliquots of each step as well as the precipitates were quantified by an automated gamma counter (1480 WIZARD, Perkin Elmer, Turku, Finland). […]

Q: Which SUV caudate putamen ([1]; 15 min p.i.) does the source give for CCCC(O)c1ccc([18F])c(-c2nnc3c(C)nc4ccc(C5CC5)nc4n23)c1 (stereo not drawn) [[^18F]11] here?
A: 0.51 SUV

Q: What about the SUV cerebellum ([1]; 15 min p.i.) of the same compound?
A: 0.40 SUV

Q: And the “peak value of brain uptake (SUV)” value ([1]; whole brain, at 0.6 min)?
A: 0.97 SUV

Q: What about the chemical stability [2] of the same compound?
A: stable

Q: And the “fraction of non-metabolized radiotracer in brain” value [3]?
A: 66%

Q: And the “fraction of non-metabolized radiotracer in plasma” value [3]?
A: about 50%

From PMC9609767, “Radiosynthesis and Preclinical Evaluation of an ^18F-Labeled Triazolopyridopyrazine-Based Inhibitor for Neuroimaging of the Phosphodiesterase 2A (PDE2A)” (Pharmaceuticals, 2022)
